Data taken from article PMC3740339 (Neurotoxicity research, 2009).

Molecular target: tau (htau40), synthetic filaments (Homo sapiens, UniProt P10636)
Assay: Thioflavin S fluorescence displacement from synthetic htau40 filaments
Assay type: binding

Sequence of tau (htau40), synthetic filaments (P10636 1-441 isoform P10636-8): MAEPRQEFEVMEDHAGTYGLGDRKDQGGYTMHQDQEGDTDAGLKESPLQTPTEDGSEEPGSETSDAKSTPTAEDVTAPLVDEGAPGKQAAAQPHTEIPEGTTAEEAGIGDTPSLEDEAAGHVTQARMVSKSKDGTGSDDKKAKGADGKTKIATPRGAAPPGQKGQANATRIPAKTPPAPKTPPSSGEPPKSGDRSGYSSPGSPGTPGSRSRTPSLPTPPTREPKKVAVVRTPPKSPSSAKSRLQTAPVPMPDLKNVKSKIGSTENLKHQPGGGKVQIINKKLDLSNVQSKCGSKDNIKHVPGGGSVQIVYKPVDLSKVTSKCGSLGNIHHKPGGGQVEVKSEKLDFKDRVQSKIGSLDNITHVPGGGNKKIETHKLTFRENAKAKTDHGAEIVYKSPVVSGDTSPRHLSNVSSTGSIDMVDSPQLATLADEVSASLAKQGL

AC50: 36 ± 6 nM
Compound: COc1ccc2nc(/N=N/c3ccc(N(C)C)cc3)sc2c1 [N3, (E)-2-[[4-(dimethylamino)phenyl]azo]-6-methoxybenzothiazole]
